# Assay results as given in US11371055B2, “Herbicide resistance genes” (CORTEVA AGRISCIENCE LLC, priority 2005, dated 2022).
# Tests used:
# [1] = target: T1, AAD-12 (v2) (Delftia acidovorans, UniProt P83309); assay: Colorimetric phenol detection assay of AAD-12 activity; type: biochemical; settings: for activity of AAD-12 (v2) on substrate (absorbance at 510 nm, FIG. 3): 4.4 μg AAD-12 (v2), 0.5 mM substrate, 5 minutes
# T1 construct: made in house; host or cells: Pseudomonas fluorescens strain MB324 (construct pDAB739)
# T1 sequence (P83309 whole entry, looked up, natural form): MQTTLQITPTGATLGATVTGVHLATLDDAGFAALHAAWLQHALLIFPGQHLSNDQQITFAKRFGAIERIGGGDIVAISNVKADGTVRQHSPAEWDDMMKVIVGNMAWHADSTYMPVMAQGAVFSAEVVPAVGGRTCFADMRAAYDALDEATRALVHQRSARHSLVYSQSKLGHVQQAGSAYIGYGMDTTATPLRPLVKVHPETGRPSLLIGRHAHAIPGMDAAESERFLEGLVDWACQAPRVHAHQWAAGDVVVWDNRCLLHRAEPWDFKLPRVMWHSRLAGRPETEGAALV
# Description: Enzyme activity was measured by colorimetric detection of the product phenol using a protocol modified from that of Fukumori and Hausinger (1993) (J. Biol. Chem. 268: 24311-24317) to enable deployment in a 96-well microplate format. The colorimetric assay has been described for use in measuring the activity of dioxygenases cleaving 2,4-D and dichlorprop to release the product 2,4-dichlorophenol. The color yield from several phenols was compared to that of 2,4-dichlorophenol using the detection method previously described to ascertain which phenol products could be readily detected. […] Pyridinols derived from fluroxypyr and triclopyr produced no significant color. The color yield of 2,4-dichlorophenol was linear and proportional to the concentration of phenol in the assay up to ˜500 μM.
# Assays were initiated by addition of the aryloxyalkanoate substrate, enzyme or α-ketoglutarate at time zero. After 5 minutes of incubation at 25° C., the reaction was terminated by addition of 30 μl of a 1:1:1 mix of 50 mM Na EDTA; pH 10 buffer (3.09 g boric acid+3.73 g KCl+44 ml 1 N KOH) and 0.2% 4-aminoantipyrine. Then 10 μl 0.8% potassium ferricyanide was added and after 5 or 10 min, the absorbance at 510 nm was recorded in a spectrophotometric microplate reader. Blanks contained all reagents except for enzyme to account for the occasional slight contamination of some of the substrates by small amounts of phenols.
# The results are shown in FIG. 3, which illustrates activity of AAD-12 (v2) on 2,4-D and enantiomers of dichlorprop. 4.4 μg AAD-12 (v2) was incubated with 0.5 mM substrate (1 mM for (R,S)-dichlorprop) and the reaction initiated by addition of α-ketoglutarate. After 5 minutes, the reaction was quenched, and the absorbance at 510 nm determined after addition of colorimetric detection reagents. The background value without enzyme was subtracted.
# [2] = tested on: Homozygous AAD-1 (v3) gene T4 plants (Arabidopsis); assay: T1 Arabidopsis postemergence herbicide dose response, AAD-1 comparison; type: in vivo, Arabidopsis thaliana
# Description: T1 plants were then randomly assigned to various rates of 2,4-D. For Arabidopsis, 50 g ae/ha 2,4-D is an effective dose to distinguish sensitive plants from ones with meaningful levels of resistance. Elevated rates were also applied to determine relative levels of resistance (50, 200, 800, or 3200 g ac/ha). Tables 10 and 11 show comparisons drawn to an aryloxyalkanoate herbicide resistance gene (AAD-1 (v3)) previously described in PCT/US2005/014737.
# All auxin herbicide applications were made using the DeVilbiss sprayer as described above to apply 703 L/ha spray volume (0.4 ml solution/3-inch pot) or applied by track sprayer in a 187 L/ha spray volume. 2,4-D used was either technical grade (Sigma, St. Louis, Mo.) dissolved in DMSO and diluted in water (<1% DMSO final concentration) or the commercial dimethylamine salt formulation (456 g ac/L, NuFarm, St Joseph, Mo.). Dichlorprop used was commercial grade formulated as potassium salt of R-dichlorprop (600 g ai/L, AH Marks). As herbicide rates increased beyond 800 g ae/ha, the pH of the spray solution became exceedingly acidic, burning the leaves of young, tender Arabidopsis plants and complicating evaluation of the primary effects of the herbicides. It became standard practice to apply these high rates of herbicides in 200 mM HEPES buffer, pH 7.5.
# The first Arabidopsis transformations were conducted using AAD-12 (v1) (plant optimized gene). T1 transformants were first selected from the background of untransformed seed using a glufosinate selection scheme. Over 300,000 T1 seed were screened and 316 glufosinate resistant plants were identified (PAT gene), equating to a transformation/selection frequency of 0.10% which lies in the normal range of selection frequency of constructs where PAT+Liberty are used for selection. T1 plants selected above were subsequently transplanted to individual pots and sprayed with various rates of commercial aryloxyalkanoate herbicides. Table 11 compares the response of AAD-12 (v1) and control genes to impart 2,4-D resistance to Arabidopsis T1 transformants. Response is presented in terms of % visual injury 2 WAT. […] Since each T1 is an independent transformation event, one can expect significant variation of individual T1 responses within a given rate. An arithmetic mean and standard deviation is presented for each treatment. The range in individual response is also indicated in the last column for each rate and transformation. PAT/Cry1F-transformed Arabidopsis served as an auxin-sensitive transformed control. The AAD-12 (v1) gene imparted herbicide resistance to individual T1 Arabidopsis plants. Within a given treatment, the level of plant response varied greatly and can be attributed to the fact each plant represents an independent transformation event. Of important note, at each 2,4-D rate tested, there were individuals that were unaffected while some were severely affected. […] Injury levels tend to be greater and the frequency of uninjured plants was lower at elevated rates up to 3,200 g ae/ha (or 6× field rate). Also at these high rates, the spray solution becomes highly acidic unless buffered. Arabidopsis grown mostly in the growth chamber has a very thin cuticle and severe burning effects can complicate testing at these elevated rates. Nonetheless, many individuals have survived 3.200 g ac/ha 2,4-D with little or no injury.
# [3] = 50 g ae/ha 2,4-D postemergence, 2 WAT
# [4] = 200 g ae/ha 2,4-D postemergence, 2 WAT
# [5] = 800 g ae/ha 2,4-D postemergence, 2 WAT
# [6] = 3200 g ae/ha 2,4-D postemergence, 2 WAT
# [7] = 50 g ae/ha R-dichlorprop postemergence
# [8] = 200 g ae/ha R-dichlorprop postemergence
# [9] = 800 g ae/ha R-dichlorprop postemergence
# [10] = 3200 g ae/ha R-dichlorprop postemergence
smiles,measurement,setting,value
"O=C(O)COc1ccc(Cl)cc1Cl [2,4-D, 2,4-dichlorophenoxyacetic acid]","activity of AAD-12 (v2) on substrate (absorbance at 510 nm, FIG. 3)",[1],equivalent to that on (S)-dichlorprop
same,inhibition at 2000 µM,[1]; read-out: Substrate inhibition at 2 mM,55%
same,% Injury 20-40% (number of individuals),[2]; [3],0
same,% Injury <20% (number of individuals),[2]; [3],10
same,% Injury >40% (number of individuals),[2]; [3],0
same,% Injury Ave,[2]; [3],0%
same,% Injury 20-40% (number of individuals),[2]; [4],0
same,% Injury <20% (number of individuals),[2]; [4],10
same,% Injury >40% (number of individuals),[2]; [4],0
same,% Injury Ave,[2]; [4],0%
same,% Injury 20-40% (number of individuals),[2]; [5],0
same,% Injury <20% (number of individuals),[2]; [5],10
same,% Injury >40% (number of individuals),[2]; [5],0
same,% Injury Ave,[2]; [5],0%
same,% Injury 20-40% (number of individuals),[2]; [6],1
same,% Injury <20% (number of individuals),[2]; [6],9
same,% Injury >40% (number of individuals),[2]; [6],0
same,% Injury Ave,[2]; [6],2%
"C[C@@H](Oc1ccc(Cl)cc1Cl)C(=O)O [(R)-dichlorprop, R-2,4-dichlorophenoxypropionic acid]","activity of AAD-12 (v2) on substrate (absorbance at 510 nm, FIG. 3)",[1],minimal activity
same,% Injury 20-40% (number of individuals),[2]; [7],0
same,% Injury <20% (number of individuals),[2]; [7],10
same,% Injury >40% (number of individuals),[2]; [7],0
same,% Injury Ave,[2]; [7],0%
same,% Injury 20-40% (number of individuals),[2]; [8],0
same,% Injury <20% (number of individuals),[2]; [8],10
same,% Injury >40% (number of individuals),[2]; [8],0
same,% Injury Ave,[2]; [8],0%
same,% Injury 20-40% (number of individuals),[2]; [9],0
same,% Injury <20% (number of individuals),[2]; [9],10
same,% Injury >40% (number of individuals),[2]; [9],0
same,% Injury Ave,[2]; [9],0%
same,% Injury 20-40% (number of individuals),[2]; [10],0
same,% Injury <20% (number of individuals),[2]; [10],10
same,% Injury >40% (number of individuals),[2]; [10],0
same,% Injury Ave,[2]; [10],0%
